# In US7179825B2, “Retinoic acid mimetic anilides” (Janssen Pharmaceutica N.V., priority 1997, dated 2007):
# Test system: metabolism of retinoic acid in human breast cancer cells
# Experiment: Inhibition of retinoic acid (RA) metabolism (Example C.1)
# Type: cell-based
# Details: MCF7; MCF-7 human breast cancer cells, 3H-RA as substrate; concentration needed to reduce the amount of metabolites to 50% of the control
# Outline: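 MCF-7 cells, pre-stimulated with RA the day before, incubated with ³H-RA substrate and test compound in 1% DMSO. Polar ³H-metabolites separated from unmetabolized RA and counted by scintillation. IC50 is the concentration cutting metabolite formation to 50% of control, with blank run alongside.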
row,IC50 [nM],SMILES
1,23.3,"CC(C)C(c1ccc(NC(=S)Cc2ccc(Cl)cc2)cc1)n1ccnc1 (centres unmarked) [Compound 764, 4-chloro-N-[4-[1-(1H-imidazol-1-yl)-2-methylpropyl]phenyl]benzenethane-thioamide]"
2,6.64,"CC(C)C(c1ccc(NC(=O)Nc2ccccn2)cc1)n1ccnc1 (racemic) [Compound 274, (±)-N-(2-pyridinyl)-N′-[4-[1-(1H-imidazol-1-yl)-2-methylpropyl]phenyl]urea]"

# Same assay, conditions: MCF-7 human breast cancer cells, 3H-RA as substrate; concentration needed to reduce the amount of metabolites to 50% of the control
row,IC50 [nM],SMILES
1,2.88,CC(C)C(c1ccc(NC(=O)CC2COc3ccccc3O2)cc1)n1cncn1 (centres unmarked) [Compound 162]
2,8.12,CCC(CC)C(c1ccc(NC(=O)C2CCc3ccccc3O2)cc1)n1ccnc1 (centres unmarked) [Compound 29]
3,1.78,C/C=C(\C)C(=O)Nc1ccc(C(C(C)C)n2ccnc2)cc1 (racemic) [Compound 574]
4,2.04,"CCOc1ccc(CCC(=O)Nc2ccc(C(C(C)N(C)C)n3ccnc3)cc2)cc1 (single isomer, unassigned) [Compound 346]"
5,3.43,"CC(=Cc1ccccc1)C(=O)Nc1ccc(C(C(C)Sc2ccccc2)n2ccnc2)cc1 (single isomer, unassigned) [Compound 484]"
6,83.8,O=C(Nc1ccc(C(c2ccccc2)n2ccnc2)cc1)C(O)c1ccccc1 (centres unmarked) [Compound 420]
7,1.87,CC(C)C(c1ccc(NC(=O)C2Oc3ccccc3O2)cc1)n1cncn1 (centres unmarked) [Compound 161]
8,> 1000,C/C(=C\c1ccccc1)C(=O)Nc1ccc(C(C)n2ccnc2)cc1 (racemic) [Compound 466]
9,> 100,O=C(Nc1ccc(C(c2cccc(C(F)(F)F)c2)n2ccnc2)cc1)Nc1cccc(F)c1 (racemic) [Compound 729]
10,2.25,CC(C)C(c1ccc(NC(=O)Nc2ccc(F)cc2F)cc1)n1ccnc1 (racemic) [Compound 734]
11,1.06,CCC(CC)C(c1ccc(NC(=O)Cc2ccc(C)cc2)cc1)n1ccnc1 (racemic) [Compound 94]
12,0.104,CCOc1ccc(CCC(=O)Nc2ccc(C(C(CC)CC)n3ccnc3)cc2)cc1 (racemic) [Compound 39]
13,0.0516,CCC(CC)C(c1ccc(NC(=O)Cc2ccc(OC)cc2)cc1)n1ccnc1 (racemic) [Compound 105]
14,2.58,CCCC(c1ccc(NC(=O)/C(C)=C/c2ccccc2)cc1)n1ccnc1 (racemic) [Compound 467]
15,3.65,"Cc1cc(CC(=O)Nc2ccc(C(C(C)N(C)C)n3ccnc3)cc2)cc(C)c1C (single isomer, unassigned) [Compound 309]"
16,1.04,CCC(CC)C(c1ccc(NC(=O)c2ccccc2)cc1)n1ccnc1 (racemic) [Compound 22]
17,0.0483,CCC(CC)C(c1ccc(NC(=O)Cc2cc(OC)c(OC)c(OC)c2)cc1)n1cncn1 (racemic) [Compound 80]
18,> 1000,O=C(C=C(c1ccccc1)C1CCCCC1)Nc1ccc(C(c2ccc(Cl)cc2)n2ccnc2)cc1 (mixture of isomers) [Compound 514]
19,2.87,C/C(=C\c1ccccc1)C(=O)Nc1ccc(C(C(C)C)n2ccnc2)cc1 (racemic) [Compound 455]
20,1.56,CC(C)C(c1ccc(NC(=O)Cc2ccccc2Cl)cc1)n1ccnc1 (centres unmarked) [Compound 664]

# Test system: Ovariectomized rats
# Experiment: Vaginal keratinization test on ovariectomized rats (Example C.2)
# Type: in vivo
# Details: Rattus norvegicus, po, estradiol undecylate induced keratinization, per os once daily on days 1-3, active dose = 50% of rats show complete suppression, read-out: LAD (lowest active dose)
# Outline: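 Ovariectomized rats given s.c. estradiol undecylate (100 μg per 100 g body weight in sesame oil), then oral compound once daily on days 1-3 (vehicle PEG 200). Vaginas assessed histologically one day after last dose; lowest active dose (mg/kg) is the dose giving complete keratinization suppression in 50% of rats.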
row,SMILES,minimal effective dose [mg/kg]
1,"CC(C)C(c1ccc(NC(=S)Cc2ccc(Cl)cc2)cc1)n1ccnc1 (centres unmarked) [Compound 764, 4-chloro-N-[4-[1-(1H-imidazol-1-yl)-2-methylpropyl]phenyl]benzenethane-thioamide]",> 5
2,"CC(C)C(c1ccc(NC(=O)Nc2ccccn2)cc1)n1ccnc1 (racemic) [Compound 274, (±)-N-(2-pyridinyl)-N′-[4-[1-(1H-imidazol-1-yl)-2-methylpropyl]phenyl]urea]",> 10

# Same assay, conditions: estradiol undecylate induced keratinization, per os once daily on days 1-3, active dose = 50% of rats show complete suppression
row,SMILES,LAD (lowest active dose) [mg/kg]
1,CC(C)C(c1ccc(NC(=O)CC2COc3ccccc3O2)cc1)n1cncn1 (centres unmarked) [Compound 162],>5.00
2,CCC(CC)C(c1ccc(NC(=O)C2CCc3ccccc3O2)cc1)n1ccnc1 (centres unmarked) [Compound 29],5.00
3,C/C=C(\C)C(=O)Nc1ccc(C(C(C)C)n2ccnc2)cc1 (racemic) [Compound 574],20.00
4,"CCOc1ccc(CCC(=O)Nc2ccc(C(C(C)N(C)C)n3ccnc3)cc2)cc1 (single isomer, unassigned) [Compound 346]",>5.00
5,"CC(=Cc1ccccc1)C(=O)Nc1ccc(C(C(C)Sc2ccccc2)n2ccnc2)cc1 (single isomer, unassigned) [Compound 484]",>5.00
6,O=C(Nc1ccc(C(c2ccccc2)n2ccnc2)cc1)C(O)c1ccccc1 (centres unmarked) [Compound 420],>20.00
7,CC(C)C(c1ccc(NC(=O)C2Oc3ccccc3O2)cc1)n1cncn1 (centres unmarked) [Compound 161],>2.50
8,C/C(=C\c1ccccc1)C(=O)Nc1ccc(C(C)n2ccnc2)cc1 (racemic) [Compound 466],>20.00
9,O=C(Nc1ccc(C(c2cccc(C(F)(F)F)c2)n2ccnc2)cc1)Nc1cccc(F)c1 (racemic) [Compound 729],2.50
10,CC(C)C(c1ccc(NC(=O)Nc2ccc(F)cc2F)cc1)n1ccnc1 (racemic) [Compound 734],10.00
11,CCC(CC)C(c1ccc(NC(=O)Cc2ccc(C)cc2)cc1)n1ccnc1 (racemic) [Compound 94],5.00
12,CCOc1ccc(CCC(=O)Nc2ccc(C(C(CC)CC)n3ccnc3)cc2)cc1 (racemic) [Compound 39],0.60
13,CCC(CC)C(c1ccc(NC(=O)Cc2ccc(OC)cc2)cc1)n1ccnc1 (racemic) [Compound 105],2.50
14,CCCC(c1ccc(NC(=O)/C(C)=C/c2ccccc2)cc1)n1ccnc1 (racemic) [Compound 467],>20.00
15,"Cc1cc(CC(=O)Nc2ccc(C(C(C)N(C)C)n3ccnc3)cc2)cc(C)c1C (single isomer, unassigned) [Compound 309]",>2.50
16,CCC(CC)C(c1ccc(NC(=O)c2ccccc2)cc1)n1ccnc1 (racemic) [Compound 22],2.50
17,CCC(CC)C(c1ccc(NC(=O)Cc2cc(OC)c(OC)c(OC)c2)cc1)n1cncn1 (racemic) [Compound 80],>2.50
18,O=C(C=C(c1ccccc1)C1CCCCC1)Nc1ccc(C(c2ccc(Cl)cc2)n2ccnc2)cc1 (mixture of isomers) [Compound 514],>20.00
19,C/C(=C\c1ccccc1)C(=O)Nc1ccc(C(C(C)C)n2ccnc2)cc1 (racemic) [Compound 455],2.50
20,CC(C)C(c1ccc(NC(=O)Cc2ccccc2Cl)cc1)n1ccnc1 (centres unmarked) [Compound 664],5.00
